Results on six compounds are retold here after PubChem BioAssay (NCI).

Among the test systems are A498 renal; ACHN renal; CCRF-CEM leukemia; HCT-15 colon; HT29 colon; MDA-MB-435; NCI/ADR-RES ovarian; T-47D breast; U251 CNS; UACC-257 melanoma.
What all share (assay): NCI-60 cell line screen, 48 h

“And” between values parts separate entries of the source, which are not always exact repeats. Equal values may be shown once.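 A five-concentration, 48-hour dose response in 96-well plates underlies each endpoint, interpolated linearly between surrounding concentrations. GI50 = concentration required for 50% inhibition of growth. TGI: total growth inhibition.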

As to `C/C(=N\NC(=S)N1CCN(c2ccccn2)CC1)c1ncccn1`, the TGI is 6.19 µM and 16.2 µM with A498 renal; 12.1 µM in the experiment on ACHN renal; 2.06 µM and 11.4 µM in the experiment on CCRF-CEM leukemia; 5.48 µM and 16.7 µM in the experiment with HCT-15 colon; 7.55 µM and 14.9 µM in the experiment with HT29 colon; 11.9 µM in the experiment on MDA-MB-435. For the same compound, the TGI is 3.95 µM and 0.403 µM in the experiment with NCI/ADR-RES ovarian; 18.5 µM in the experiment with T-47D breast; 5.45 µM and 11.8 µM in the experiment with U251 CNS; 1.42 µM and 4.27 µM with UACC-257 melanoma. Moreover, the GI50 in the experiment on ACHN renal was 0.0871 µM; in the experiment on HCT-15 colon it was 0.013 µM; in the experiment on HT29 colon it was less than 0.0263 µM; with MDA-MB-435, 0.414 µM; with U251 CNS it was 0.0796 µM; in the experiment with UACC-257 melanoma, 0.0339 µM.
`COc1ccc(C2CC(c3ccc(N(C)C)cc3)=NN2c2ccc(S(N)(=O)=O)cc2)cc1` (stereo unspecified): the GI50 was 2.15 µM in the experiment with A498 renal; 3.37 µM in the experiment with ACHN renal; 5.24 µM in the experiment with CCRF-CEM leukemia; 2.99 µM in the experiment with HCT-15 colon; 3.5 µM in the experiment with HT29 colon; 3.25 µM with MDA-MB-435. Moreover, the GI50 was 4.73 µM in the experiment with NCI/ADR-RES ovarian, 4.51 µM in the experiment with T-47D breast, 3.28 µM with U251 CNS and 4.48 µM in the experiment with UACC-257 melanoma. In addition, the TGI with A498 renal was 8.53 µM; in the experiment on ACHN renal, greater than 100 µM; in the experiment on CCRF-CEM leukemia, greater than 100 µM; in the experiment with HCT-15 colon it was greater than 100 µM; in the experiment on HT29 colon it was 10.7 µM; with MDA-MB-435 it was 34.4 µM. Also, the TGI with NCI/ADR-RES ovarian, with T-47D breast, in the experiment on U251 CNS and in the experiment with UACC-257 melanoma was greater than 100 µM throughout.
For `O=C1/C(=C/c2ccccc2[N+](=O)[O-])COc2ccc(O)cc21`, the GI50 is 1.65 µM in the experiment with A498 renal; 0.74 µM with ACHN renal; 0.326 µM in the experiment on CCRF-CEM leukemia; 0.417 µM with HCT-15 colon; 0.397 µM in the experiment with HT29 colon; 2.18 µM in the experiment on MDA-MB-435. Besides, the GI50 in the experiment on NCI/ADR-RES ovarian was 1.99 µM; with T-47D breast, 2.36 µM; with U251 CNS it was 2.41 µM; in the experiment on UACC-257 melanoma, 2.16 µM. In addition, the TGI worked out at 7.24 µM with A498 renal; 2.13 µM with ACHN renal; 2.52 µM in the experiment with CCRF-CEM leukemia; 2.06 µM in the experiment on HCT-15 colon; 3.07 µM with HT29 colon; 5.96 µM with MDA-MB-435. Also, the TGI with NCI/ADR-RES ovarian worked out at 8.09 µM; with T-47D breast it was 17.6 µM; with U251 CNS, 8.74 µM; with UACC-257 melanoma, 7.13 µM.
`Cn1c(C(=O)c2cccc3ccccc23)nc2ccccc21`: the GI50 is 8.59 µM in the experiment with A498 renal; greater than 100 µM in the experiment with ACHN renal; greater than 100 µM in the experiment on CCRF-CEM leukemia; greater than 100 µM in the experiment on HCT-15 colon; greater than 100 µM in the experiment with HT29 colon; greater than 100 µM in the experiment with MDA-MB-435. Besides, the GI50 in the experiment on NCI/ADR-RES ovarian was greater than 100 µM; with T-47D breast, 22 µM; in the experiment on U251 CNS, greater than 100 µM; with UACC-257 melanoma, greater than 100 µM. Also, the TGI in the experiment on A498 renal, in the experiment with ACHN renal, in the experiment on CCRF-CEM leukemia, in the experiment with HCT-15 colon, in the experiment with HT29 colon and with MDA-MB-435 was greater than 100 µM each time. The TGI with NCI/ADR-RES ovarian, in the experiment on T-47D breast, with U251 CNS and in the experiment with UACC-257 melanoma was greater than 100 µM throughout.
On to `Cc1cc(O)c2c3c(ccc2c1)C(=O)c1c(O)cccc1C3=O`, for which the TGI in the experiment on A498 renal was greater than 100 µM; with ACHN renal, greater than 100 µM; with CCRF-CEM leukemia, greater than 100 µM; with HCT-15 colon, greater than 100 µM; in the experiment on HT29 colon, greater than 44.9 µM; in the experiment on MDA-MB-435, 0.341 µM. Besides, the TGI in the experiment with NCI/ADR-RES ovarian, in the experiment with T-47D breast, in the experiment on U251 CNS and in the experiment on UACC-257 melanoma was greater than 100 µM in each case.
As to `Nc1nc(-c2ccc(Cl)cc2)nc2c1sc(=S)n2-c1ccccc1`, the GI50 is 1.92 µM in the experiment on A498 renal; 1.83 µM with ACHN renal; 27 µM with CCRF-CEM leukemia; 4.92 µM in the experiment with HCT-15 colon; 6.09 µM in the experiment with HT29 colon; 6.65 µM with MDA-MB-435. The GI50 in the experiment on NCI/ADR-RES ovarian was 3.7 µM; in the experiment on T-47D breast, 2.13 µM; with U251 CNS it was 3.5 µM; in the experiment with UACC-257 melanoma, 6.58 µM. Further, the TGI was 5.19 µM with A498 renal; 3.82 µM in the experiment with ACHN renal; greater than 100 µM in the experiment on CCRF-CEM leukemia; greater than 100 µM with HCT-15 colon; greater than 100 µM in the experiment on HT29 colon; greater than 100 µM in the experiment on MDA-MB-435. For the same compound, the TGI was found to be 19.8 µM in the experiment with NCI/ADR-RES ovarian, 5.54 µM in the experiment with T-47D breast, 11.9 µM in the experiment with U251 CNS and 32 µM in the experiment with UACC-257 melanoma.
